{"source": "paper PMC11154582", "about": "“Modeling the Blood-Brain Barrier Permeability of Potential Heterocyclic Drugs via Biomimetic IAM Chromatography Technique Combined with QSAR Methodology” (Molecules, 2024)", "origin": "cited, not measured here"}
{"conditions": "IAM column; ref [21]; cited from earlier work"}
{"smiles": "Cc1ccc(N2CCn3c2nnc(C(=O)NN)c3=O)cc1", "note": "[Compound 52]", "log kw, IAM": 0.16}
{"conditions": "IAM column; ref [22]; cited from earlier work"}
{"smiles": "CC(C)c1nnc2n(c1=O)CCN2c1ccccc1", "note": "[Compound 29]", "log kw, IAM": 0.76}
{"smiles": "CCOC(=O)c1nnc2n(c1=O)CCN2c1ccc(Cl)cc1", "note": "[Compound 38]", "log kw, IAM": 1.12}
{"smiles": "CCOC(=O)c1nnc2n(c1=O)CCN2c1ccc(C)cc1", "note": "[Compound 36]", "log kw, IAM": 1.93}
{"smiles": "CCOC(=O)c1nnc2n(c1=O)CCN2c1ccccc1", "note": "[Compound 35]", "log kw, IAM": 0.48}
{"smiles": "O=c1c(C(F)(F)F)nnc2n1CCN2c1cccc(Cl)c1", "note": "[Compound 20]", "log kw, IAM": 1.66}
{"smiles": "Cc1ccc(N2CCn3c2nnc(C(C)C)c3=O)cc1", "note": "[Compound 30]", "log kw, IAM": 1.05}
{"smiles": "CC(C)c1nnc2n(c1=O)CCN2c1cccc(Cl)c1", "note": "[Compound 32]", "log kw, IAM": 1.49}
{"smiles": "O=c1c(C(F)(F)F)nnc2n1CCN2c1ccc(Cl)c(Cl)c1", "note": "[Compound 22]", "log kw, IAM": 2.29}
{"smiles": "Cc1ccc(N2CCn3c2nnc(C(F)(F)F)c3=O)cc1", "note": "[Compound 17]", "log kw, IAM": 1.25}
{"smiles": "O=c1c(C(F)(F)F)nnc2n1CCN2c1ccc(Cl)cc1", "note": "[Compound 21]", "log kw, IAM": 1.58}
{"conditions": "IAM column; ref [23]; cited from earlier work"}
{"smiles": "O=c1c(Cc2ccccc2)nnc2n1CCN2c1ccc(Cl)cc1", "note": "[Compound 118]", "log kw, IAM": 2.52}
{"smiles": "O=c1c(-c2ccccc2)nnc2n1CCN2c1cccc(Cl)c1", "note": "[Compound 90]", "log kw, IAM": 2.64}
{"smiles": "CCOC(=O)Cc1nnc2n(c1=O)CCN2c1ccc(Cl)cc1", "note": "[Compound 49]", "log kw, IAM": 2.11}
{"smiles": "COC(=O)Cc1nnc2n(c1=O)CCN2c1ccc(Cl)cc1", "note": "[Compound 44]", "log kw, IAM": 1.82}
{"smiles": "COc1ccccc1N1CCn2c1nnc(-c1ccccc1)c2=O", "note": "[Compound 85]", "log kw, IAM": 1.47}
{"smiles": "CCOc1ccc(N2CCn3c2nnc(Cc2cccc(Cl)c2)c3=O)cc1", "note": "[Compound 115]", "log kw, IAM": 2.73}
{"smiles": "Cc1ccc(Cc2nnc3n(c2=O)CCN3c2ccc(C)cc2)cc1", "note": "[Compound 107]", "log kw, IAM": 2.51}
{"smiles": "O=c1c(Cc2ccc(Cl)cc2)nnc2n1CCN2c1ccc(Cl)cc1", "note": "[Compound 121]", "log kw, IAM": 3.17}
{"smiles": "Cc1ccc(N2CCn3c2nnc(Cc2cccc(Cl)c2)c3=O)cc1", "note": "[Compound 110]", "log kw, IAM": 2.78}
{"smiles": "Cc1cccc(N2CCn3c2nnc(-c2ccco2)c3=O)c1C", "note": "[Compound 64]", "log kw, IAM": 1.42}
{"smiles": "CCc1nnc2n(c1=O)CCN2c1ccccc1", "note": "[Compound 23]", "log kw, IAM": 0.55}
{"smiles": "O=c1c(Cc2ccccc2Cl)nnc2n1CCN2c1ccc(Cl)cc1", "note": "[Compound 119]", "log kw, IAM": 3.22}
{"smiles": "CCc1nnc2n(c1=O)CCN2c1ccccc1Cl", "note": "[Compound 25]", "log kw, IAM": 0.80}
{"smiles": "Cc1ccc(N2CCn3c2nnc(CCc2ccccc2)c3=O)cc1", "note": "[Compound 123]", "log kw, IAM": 2.41}
{"smiles": "Cc1ccc(N2CCn3c2nnc(Cc2ccccc2)c3=O)cc1", "note": "[Compound 106]", "log kw, IAM": 2.15}
{"smiles": "Cc1ccc(N2CCn3c2nnc(-c2ccco2)c3=O)cc1", "note": "[Compound 63]", "log kw, IAM": 1.69}
{"smiles": "O=c1c(-c2ccco2)nnc2n1CCN2c1ccccc1", "note": "[Compound 61]", "log kw, IAM": 1.29}
{"smiles": "CCOc1ccc(N2CCn3c2nnc(CC(=O)OC)c3=O)cc1", "note": "[Compound 43]", "log kw, IAM": 1.42}
{"smiles": "O=c1c(Cc2cccc(Cl)c2)nnc2n1CCN2c1ccc(Cl)cc1", "note": "[Compound 120]", "log kw, IAM": 3.15}
{"smiles": "O=c1c(-c2ccco2)nnc2n1CCN2c1ccc(Cl)cc1", "note": "[Compound 69]", "log kw, IAM": 2.02}
{"smiles": "COC(=O)Cc1nnc2n(c1=O)CCN2c1ccccc1", "note": "[Compound 40]", "log kw, IAM": 0.81}
{"smiles": "O=c1c(-c2ccco2)nnc2n1CCN2c1ccccc1Cl", "note": "[Compound 67]", "log kw, IAM": 1.27}
{"smiles": "Cc1ccc(N2CCn3c2nnc(-c2ccccc2)c3=O)cc1", "note": "[Compound 84]", "log kw, IAM": 2.22}
{"smiles": "CCc1nnc2n(c1=O)CCN2c1cccc(Cl)c1", "note": "[Compound 26]", "log kw, IAM": 0.84}
{"smiles": "CCOC(=O)Cc1nnc2n(c1=O)CCN2c1ccc(C)cc1", "note": "[Compound 46]", "log kw, IAM": 1.70}
{"smiles": "O=c1c(CCc2ccccc2)nnc2n1CCN2c1ccc(Cl)c(Cl)c1", "note": "[Compound 126]", "log kw, IAM": 3.40}
{"smiles": "COc1ccc(N2CCn3c2nnc(-c2ccco2)c3=O)cc1", "note": "[Compound 66]", "log kw, IAM": 1.19}
{"smiles": "CCc1nnc2n(c1=O)CCN2c1ccc(Cl)cc1", "note": "[Compound 27]", "log kw, IAM": 1.24}
{"smiles": "O=c1c(-c2ccco2)nnc2n1CCN2c1c(Cl)cccc1Cl", "note": "[Compound 71]", "log kw, IAM": 1.70}
{"smiles": "Cc1ccc(N2CCn3c2nnc(Cc2cccc(C)c2)c3=O)cc1", "note": "[Compound 108]", "log kw, IAM": 2.59}
{"smiles": "COc1ccccc1N1CCn2c1nnc(-c1ccco1)c2=O", "note": "[Compound 65]", "log kw, IAM": 1.11}
{"smiles": "Cc1ccccc1N1CCn2c1nnc(-c1ccco1)c2=O", "note": "[Compound 62]", "log kw, IAM": 0.96}
{"smiles": "Cc1cccc(N2CCn3c2nnc(-c2ccccc2)c3=O)c1C", "note": "[Compound 88]", "log kw, IAM": 1.85}
{"smiles": "O=c1c(Cc2ccc(Cl)cc2)nnc2n1CCN2c1ccccc1", "note": "[Compound 105]", "log kw, IAM": 2.39}
{"smiles": "O=c1c(Cc2ccccc2)nnc2n1CCN2c1ccccc1", "note": "[Compound 102]", "log kw, IAM": 3.26}
{"smiles": "O=c1c(Cc2cccc(Cl)c2)nnc2n1CCN2c1ccccc1", "note": "[Compound 104]", "log kw, IAM": 2.48}
{"smiles": "O=c1c(CCc2ccccc2)nnc2n1CCN2c1ccc(Cl)cc1", "note": "[Compound 125]", "log kw, IAM": 2.68}
{"smiles": "CCOc1ccc(N2CCn3c2nnc(Cc2ccc(C)cc2)c3=O)cc1", "note": "[Compound 113]", "log kw, IAM": 2.43}
{"smiles": "O=c1c(-c2ccccc2)nnc2n1CCN2c1ccccc1", "note": "[Compound 81]", "log kw, IAM": 1.91}
{"smiles": "CCc1nnc2n(c1=O)CCN2c1ccc(C)cc1", "note": "[Compound 24]", "log kw, IAM": 1.00}
{"smiles": "Cc1ccc(N2CCn3c2nnc(Cc2ccc(Cl)cc2)c3=O)cc1", "note": "[Compound 111]", "log kw, IAM": 2.81}
{"smiles": "CCOc1ccc(N2CCn3c2nnc(-c2ccccc2)c3=O)cc1", "note": "[Compound 87]", "log kw, IAM": 2.14}
{"smiles": "Cc1ccccc1N1CCn2c1nnc(Cc1ccccc1Cl)c2=O", "note": "[Compound 117]", "log kw, IAM": 2.02}
{"smiles": "O=c1c(-c2ccco2)nnc2n1CCN2c1ccc(Cl)c(Cl)c1", "note": "[Compound 70]", "log kw, IAM": 3.23}
{"smiles": "CCOC(=O)Cc1nnc2n(c1=O)CCN2c1ccccc1OC", "note": "[Compound 47]", "log kw, IAM": 0.91}
{"smiles": "O=c1c(CCc2ccccc2)nnc2n1CCN2c1ccccc1Cl", "note": "[Compound 124]", "log kw, IAM": 1.81}
{"smiles": "O=c1c(CCc2ccccc2)nnc2n1CCN2c1ccccc1", "note": "[Compound 122]", "log kw, IAM": 2.07}
{"smiles": "O=c1c(-c2ccco2)nnc2n1CCN2c1cccc(Cl)c1", "note": "[Compound 68]", "log kw, IAM": 2.08}
{"smiles": "Cc1ccccc1N1CCn2c1nnc(-c1ccccc1)c2=O", "note": "[Compound 82]", "log kw, IAM": 1.53}
